Experimental data as given in ChEMBL document CHEMBL3885861, “Open TG-GATES”.

Species: Rattus norvegicus
Test: Open TG-GATES - Regimen: Single
Assay type: toxicity, organism-based, Sprague-Dawley
Set-up: regimen Single, gender Male, age 6 weeks
Conditions: in vivo, po, 15 mg/kg, route gavage, dose level Low; for APTT / Bas / Eos / Fbg / Hb / Ht / Lym / MCH / MCHC / MCV / Mono / Neu / PT / Plat / RBC / Ret / WBC: tissue Blood; for KIDNEY_L / KIDNEY_R / KIDNEY_TOTAL: tissue Kidney; for LIVER: tissue Liver; for A/G / ALP / ALT / AST / BUN / CRE / Ca / Cl / DBIL / GLC / IP / K / LDH / Na / PL / RALB / TBIL / TC / TG / TP / gamma-GTP: tissue Plasma

## CN(C)CCC=C1c2ccccc2CCc2ccccc21 [AMITRIPTYLINE]
3 h
  TERMINAL_BW: 194.5 g
  APTT: 16.2 s
  Bas: 0%
  Eos: 1%
  Fbg: 267.4 mg/dL
  Hb: 12.8 g/dL
  Ht: 39.3%
  Lym: 73%
  MCH: 21.2 pg
  MCHC: 32.6%
  MCV: 65 fL
  Mono: 3%
  Neu: 22.2%
  PT: 16.2 s
  Plat: 114.1 x10_4/uL
  RBC: 604.8 x10_4/ul
  Ret: 8.7%
  WBC: 91.4 x10_2/uL
  KIDNEY_L: 0.8 g
  KIDNEY_R: 0.8 g
  KIDNEY_TOTAL: 1.6 g
  LIVER: 8.5 g
  A/G: 0.8
  ALP: 1536.8 IU/L
  ALT: 54.2 IU/L
  AST: 74.4 IU/L
  BUN: 10 mg/dL
  CRE: 0.2 mg/dL
  Ca: 11.1 mg/dL
  Cl: 106.2 meq/L
  DBIL: 0.01 mg/dL
  GLC: 181.6 mg/dL
  IP: 8.8 mg/dL
  K: 4.3 meq/L
  LDH: 83.8 IU/L
  Na: 143 meq/L
  PL: 142 mg/dL
  RALB: 2.5 g/dL
  TBIL: 0.058 mg/dL
  TC: 80.2 mg/dL
  TG: 52 mg/dL
  TP: 5.4 g/dL
  gamma-GTP: 1 IU/L
6 h
  TERMINAL_BW: 191.5 g
  APTT: 16 s
  Bas: 0%
  Eos: 1%
  Fbg: 277.4 mg/dL
  Hb: 13 g/dL
  Ht: 39.9%
  Lym: 77.4%
  MCH: 21.1 pg
  MCHC: 32.6%
  MCV: 64.6 fL
  Mono: 2.6%
  Neu: 18.4%
  PT: 15.9 s
  Plat: 120 x10_4/uL
  RBC: 617.8 x10_4/ul
  Ret: 9.4%
  WBC: 75 x10_2/uL
  KIDNEY_L: 0.8 g
  KIDNEY_R: 0.8 g
  KIDNEY_TOTAL: 1.6 g
  LIVER: 7.8 g
  A/G: 0.8
  ALP: 1444.2 IU/L
  ALT: 46.4 IU/L
  AST: 77.6 IU/L
  BUN: 8.8 mg/dL
  CRE: 0.2 mg/dL
  Ca: 10.6 mg/dL
  Cl: 106.6 meq/L
  DBIL: 0.014 mg/dL
  GLC: 175.8 mg/dL
  IP: 9.2 mg/dL
  K: 4.2 meq/L
  LDH: 58.4 IU/L
  Na: 143 meq/L
  PL: 144.4 mg/dL
  RALB: 2.4 g/dL
  TBIL: 0.07 mg/dL
  TC: 84.4 mg/dL
  TG: 43.8 mg/dL
  TP: 5.3 g/dL
  gamma-GTP: 1 IU/L
9 h
  TERMINAL_BW: 192 g
  APTT: 16.6 s
  Bas: 0%
  Eos: 0.8%
  Fbg: 262.6 mg/dL
  Hb: 12.8 g/dL
  Ht: 39.3%
  Lym: 67.4%
  MCH: 21.5 pg
  MCHC: 32.6%
  MCV: 65.8 fL
  Mono: 2.4%
  Neu: 29%
  PT: 15.7 s
  Plat: 117.7 x10_4/uL
  RBC: 597 x10_4/ul
  Ret: 9.3%
  WBC: 87.8 x10_2/uL
  KIDNEY_L: 0.9 g
  KIDNEY_R: 0.9 g
  KIDNEY_TOTAL: 1.7 g
  LIVER: 7.4 g
  A/G: 0.9
  ALP: 1309.6 IU/L
  ALT: 44.6 IU/L
  AST: 71.2 IU/L
  BUN: 8.4 mg/dL
  CRE: 0.2 mg/dL
  Ca: 10.7 mg/dL
  Cl: 106.6 meq/L
  DBIL: 0.006 mg/dL
  GLC: 165.2 mg/dL
  IP: 10.4 mg/dL
  K: 3.9 meq/L
  LDH: 69.2 IU/L
  Na: 142.8 meq/L
  PL: 140.4 mg/dL
  RALB: 2.5 g/dL
  TBIL: 0.062 mg/dL
  TC: 78.6 mg/dL
  TG: 33.2 mg/dL
  TP: 5.4 g/dL
  gamma-GTP: 1 IU/L
24 h
  TERMINAL_BW: 206.4 g
  APTT: 16 s
  Bas: 0%
  Eos: 1%
  Fbg: 259.2 mg/dL
  Hb: 12.8 g/dL
  Ht: 38.8%
  Lym: 77.8%
  MCH: 21.6 pg
  MCHC: 32.9%
  MCV: 65.5 fL
  Mono: 3%
  Neu: 17.4%
  PT: 16.4 s
  Plat: 112.7 x10_4/uL
  RBC: 592.4 x10_4/ul
  Ret: 8.1%
  WBC: 89.3 x10_2/uL
  KIDNEY_L: 0.9 g
  KIDNEY_R: 0.9 g
  KIDNEY_TOTAL: 1.8 g
  LIVER: 9.4 g
  A/G: 0.8
  ALP: 1812.6 IU/L
  ALT: 52.4 IU/L
  AST: 78.6 IU/L
  BUN: 14 mg/dL
  CRE: 0.2 mg/dL
  Ca: 10.9 mg/dL
  Cl: 107 meq/L
  DBIL: 0.018 mg/dL
  GLC: 179.2 mg/dL
  IP: 7.3 mg/dL
  K: 4.2 meq/L
  LDH: 74.2 IU/L
  Na: 143 meq/L
  PL: 146.8 mg/dL
  RALB: 2.6 g/dL
  TBIL: 0.056 mg/dL
  TC: 77.2 mg/dL
  TG: 82.2 mg/dL
  TP: 5.6 g/dL
  gamma-GTP: 1 IU/L
